Laboratory results as given in the NIST ThermoML archive (doi:10.1021/acs.jced.8b01120).
± gives the expanded uncertainty stated by the source.

Test: xn = mol fraction of the nth substance listed
Details: 100 kPa, Liquid; for speed of sound: Single path-length method; for mass density: Vibrating tube method

CCCCN(CCCC)CCCC [tributylamine] + CCCCOC(C)=O
Details | mass density, 293.15 K [kg/m3] | mass density, 298.15 K [kg/m3] | mass density, 303.15 K [kg/m3] | mass density, 308.15 K [kg/m3] | mass density, 313.15 K [kg/m3] | speed of sound, 293.15 K [m/s] | speed of sound, 298.15 K [m/s] | speed of sound, 303.15 K [m/s] | speed of sound, 308.15 K [m/s] | speed of sound, 313.15 K [m/s]
x1 = 0.0535 | 870.397 ± 2 | 865.288 ± 2 | 860.118 ± 2 | 854.99 ± 2 | 849.73 ± 2 | 1214 ± 4 | 1193.8 ± 4 | 1175.2 ± 4 | 1156 ± 4 | 1132.7 ± 4
x1 = 0.11 | 859.603 ± 2 | 854.617 ± 2 | 849.591 ± 2 | 844.604 ± 2 | 839.544 ± 2 | 1217.1 ± 4 | 1196.9 ± 4 | 1178.2 ± 4 | 1158.9 ± 4 | 1135.7 ± 4
x1 = 0.2003 | 844.278 ± 2 | 839.544 ± 2 | 834.725 ± 2 | 829.963 ± 2 | 825.128 ± 2 | 1221.8 ± 4 | 1201.9 ± 4 | 1183.5 ± 4 | 1163.8 ± 4 | 1141.7 ± 4
x1 = 0.3239 | 827.789 ± 2 | 823.24 ± 2 | 818.635 ± 2 | 814.11 ± 2 | 809.428 ± 2 | 1228.3 ± 4 | 1208.9 ± 4 | 1189.5 ± 4 | 1170.4 ± 4 | 1148.8 ± 4
x1 = 0.4004 | 818.98 ± 2 | 814.604 ± 2 | 810.171 ± 2 | 805.768 ± 2 | 801.312 ± 2 | 1232.5 ± 4 | 1212.3 ± 4 | 1193.6 ± 4 | 1174.4 ± 4 | 1153.5 ± 4
x1 = 0.502 | 809.109 ± 2 | 804.828 ± 2 | 800.541 ± 2 | 796.282 ± 2 | 791.968 ± 2 | 1237.7 ± 4 | 1217.4 ± 4 | 1199.2 ± 4 | 1180.1 ± 4 | 1158.9 ± 4
x1 = 0.592 | 801.571 ± 2 | 797.439 ± 2 | 793.26 ± 2 | 789.105 ± 2 | 784.862 ± 2 | 1242.4 ± 4 | 1222.7 ± 4 | 1203.4 ± 4 | 1185.3 ± 4 | 1164.7 ± 4
x1 = 0.7201 | 792.16 ± 2 | 788.147 ± 2 | 784.362 ± 2 | 780.344 ± 2 | 775.931 ± 2 | 1249.1 ± 4 | 1229.7 ± 4 | 1210.9 ± 4 | 1192 ± 4 | 1171.8 ± 4
x1 = 0.8002 | 787.449 ± 2 | 783.513 ± 2 | 779.542 ± 2 | 775.588 ± 2 | 771.559 ± 2 | 1253.5 ± 4 | 1233.7 ± 4 | 1215 ± 4 | 1195.9 ± 4 | 1176.6 ± 4
x1 = 0.9065 | 781.614 ± 2 | 777.793 ± 2 | 773.938 ± 2 | 770.069 ± 2 | 766.156 ± 2 | 1259.1 ± 4 | 1240 ± 4 | 1220.6 ± 4 | 1201.7 ± 4 | 1183.1 ± 4
x1 = 1 | 777.006 ± 2 | 773.28 ± 2 | 769.552 ± 2 | 765.811 ± 2 | 762.061 ± 2 | 1264.2 ± 4 | 1245.2 ± 4 | 1226.2 ± 4 | 1207.4 ± 4 | 1188.8 ± 4
